In patent US20160058743A1, “METHODS FOR TREATING SENSORIMOTOR IMPAIRMENTS ASSOCIATED WITH CERTAIN TYPES OF STROKE USING AMINOPYRIDINES” (ACORDA THERAPEUTICS, INC., priority 2013, published 2016):
Where “and” joins values, the source holds several entries; their conditions need not be identical. Equal values may be shown once. Entries after “also recorded” stand apart in the source; their conditions may differ. Read-outs that look alike come from different tables or passages of the source.

How the values were obtained:
[1] = test system: rats with middle cerebral artery occlusion (MCAO); experiment: Forelimb placing test after MCAO; type: in vivo, Sprague Dawley rats; settings: for Forelimb Placing Total Score: 0=normal, 12=maximally impaired
Excerpt: (§1) In particular, the MCAO model in Sprague Dawley rats that was utilized in the experiments presented below mimics the conditions in human ischemic stroke. In this model, focal cerebral infarcts were made by permanent occlusion of the proximal right middle cerebral artery (MCA) using a modification of the method of Tamura et al. (No To Shinkei 1986; 38:747-51). Briefly, the temporalis muscle was bisected and reflected through an incision made midway between the eye and the ear canal. The proximal MCA was exposed through a subtemporal craniectomy without removing the zygomatic arch and without transecting the facial nerve.
(§2) In this experiment, Sprague Dawley rats were anesthetized, subjected to a surgery resulting in middle cerebral artery occlusion (MCAO), treated with and without 4-aminopyridine and behavioral assessments were performed as described below. Treatment was initiated at 4 weeks after stroke.
(§3) Dosing and Treatment: Rats were treated in accordance with the dosing schedule shown in Tables 2A, 2B, 3 and FIG. 2, with each Phase being a two week period of time. A solution of 4-AP was used in this experiment. Dosing was started at 4 weeks after ischemic event. 4-aminopyridine was dissolved in water for injection (WFI, Cellgro) and sterile filtered. Final concentrations of 0.315 mg/mL or 1.0 mg/mL of 4-aminopyridine were delivered at 2 mL/kg by gastric gavage, resulting in final doses of 0.63 mg/kg and 2 mg/kg respectively. Vehicle control treatment was WFI delivered at 2 mL/kg by gastric gavage. This study was divided into three treatment phases (1-3) with each randomized cohort of animals receiving a different dose level during each of the treatment phases. Starting on day 30 after MCAO (Day 30, start of phase 1), the animals received gavage dosing of solutions (2 mL/kg) approximately 12 hours apart, for a total of five doses. The same schedule was repeated with different treatment on Day 44 and Day 58 for phase 2 and 3 of the study, respectively. Animals were not treated during the 10 days between phases (washout period).
(§4) Treatment groups: Dosing was started 4 weeks after MCAO surgery. During these 4 weeks, weekly behavioral assessments, as defined below, were performed. Two dose levels of 4-AP plus vehicle control were assessed, with treatment starting at 4 weeks after ischemic event. All dosing was via gastric gavage, volume not to exceed 2 mL/kg. Animals were given the first dose and behavioral assessments were performed starting 60 minutes after dosing. Animals then received the second dose that day at the appropriate time and b.i.d (preferably every 12 hours) thereafter for 2 more days (3 total days of dosing, 5 total doses). One hour after the 5th dose, animals were subjected to behavioral assessments as defined below. Following the final behavioral assessment, drug was withdrawn for 10 or 11 days, behavior was re-assessed, and then animals were re-challenged with a cross-over treatment (Phase 2 of Table 2B) as described in Tables 2A, 2B and 3, followed by the same behavioral testing and dosing regimen. This cross-over was repeated one more time as well (Phase 3 of Table 2B) (see FIG. 2).
Behavioral test details: Behavioral evaluations were done by evaluators blinded to treatment assignment. Blinded assessments of sensorimotor function were performed just prior to MCAO surgery, 24 hours after MCAO surgery and weekly thereafter until the first phase of dosing using limb placing and body swing behavioral tests. As described above, behavioral assessments were timed exactly with dosing times. Animals were tested one hour after the 1st and 5th doses of each phase (i.e., Days 30 and 32 of the first phase, Days 44 and 46 of the second phase; and Days 58 and 60 of the third phase); animals were also tested during the washout periods on Days 42 and 56. Animals were given the first dose, behavioral assessments were performed starting 60 minutes later, and blood was collected 90 minutes after dosing. […]

[2] = test system: rats with middle cerebral artery occlusion (MCAO); experiment: Body swing test after MCAO; type: in vivo, Sprague Dawley rats; settings: for Body Swing Test (% right Swing): Group 3 mean, phase 2
Excerpt: as §1, §2, §3
as §4, with “Animals then received the second dose that day at the appropriate time and b.i.d (preferably every 12 hours) thereafter for 2 more days (3 total days of dosing, 5 total doses). One hour after the 5th dose, animals were subjected to behavioral assessments as defined below.” left out, “This cross-over was repeated one more time as well (Phase 3 of Table 2B) (see FIG. 2).” left out

Body weight of MCAO rats = type: in vivo, Sprague Dawley rats; settings: individual animals and group Mean
Excerpt: Tables 16-18 show Cylinder Test Total Score (% of overall asymmetry) for each of Groups 1-3.

[3] = 4-aminopyridine plasma levels 90 min after dosing (LC-MS/MS); type: in vivo, Sprague Dawley rats; settings: Sprague Dawley, rat, oral, read-out: Mean (SE) 4-aminopyridine Plasma Level
Experimental: Blood sampling: After the on-drug behavior assessments were completed (Days 30, 32, 44, 46, 58 and 60), approximately 300 microliter blood sample was taken exactly 90 min after dosing to assess 4-AP plasma levels at that time. Blood was collected from the saphenous vein of each animal. Blood was collected into K3 EDTA tubes and centrifuged at 10,000 rpm for 10 minutes at 4 degrees C. Plasma was obtained, frozen and stored at approximately −80 C. Samples were analyzed for 4-AP levels. 4-AP concentration was determined using a validated liquid chromatography with tandem mass spectrometric detection method in positive electrospray mode.
Treatment groups: Animals had MCAO surgery and were allowed to recover for 56 days. Animals were then randomized into 2 groups based on their baseline behavior. Par oral dosing b.i.d. was initiated in the evening of Day 56 after MCAO. Behavior testing during dosing periods was started 1 hour after dosing. Blood was collected via saphenous vein just prior to and during treatment phases just after behavioral testing (90 minutes post dosing). All dosing was via gastric gavage, volume not to exceed 2 mL/kg.
Blood sampling: 300 microliter blood sample was collected from the saphenous vein of each animal on Day 56 just prior to the first dose and then exactly 90 min after the 6 dose at each dose level. Blood was collected, centrifuged, stored and analyzed as described in Example 2, above.

[4] = cited from earlier work

Nc1ccncc1 [4-AP, 4-aminopyridine]
Effect on forelimb function (forelimb placing test) ([1]; Example 2, low (0.63 mg/kg) or high (2 mg/kg) dose b.i.d. p.o., started 4 weeks post MCAO, dose-responsive, reversible): effective to improve forelimb function; also recorded: significant improvement | Forelimb Placing Total Score ([1]; Group 2, D 30 post-MCAO, Low 4-AP 0.63 mg/kg b.i.d. p.o., 1 h after 1st dose, group Mean, N=15): 4.20 | Forelimb Placing Total Score ([1]; Group 2, D 58 post-MCAO, High 4-AP 2.0 mg/kg b.i.d. p.o., 1 h after 1st dose, group Mean, N=15): 1.90 | Forelimb Placing Total Score ([1]; Group 3, D 44 post-MCAO, High 4-AP 2.0 mg/kg b.i.d. p.o., 1 h after 1st dose, group Mean, N=15): 2.67 | Forelimb Placing Total Score ([1]; Group 3, D 44 post-MCAO, High 4-AP 2.0 mg/kg b.i.d. p.o., 1 h after 1st dose, individual rats): 4.00 (3×) and 1.00 and 2.50 and 3.00 (3×) and 4.50 (2×) and 0.00 (3×) and 5.00 and 1.50 | Forelimb Placing Total Score ([1]; Group 3, D 46 post-MCAO, High 4-AP 2.0 mg/kg b.i.d. p.o., 1 h after 5th dose, group Mean, N=15): 1.33 | Forelimb Placing Total Score ([1]; Group 3, D 46 post-MCAO, High 4-AP 2.0 mg/kg b.i.d. p.o., 1 h after 5th dose, individual rats): 3.00 (3×) and 0.00 (5×) and 2.00 and 1.50 (3×) and 1.00 (2×) and 2.50 | Forelimb Placing Total Score ([1]; Group 3, D 58 post-MCAO, Low 4-AP 0.63 mg/kg b.i.d. p.o., 1 h after 1st dose, group Mean, N=15): 2.00 | Forelimb Placing Total Score ([1]; Group 3, D 58 post-MCAO, Low 4-AP 0.63 mg/kg b.i.d. p.o., 1 h after 1st dose, individual rats): 3.00 (4×) and 0.50 and 2.00 and 3.50 and 1.50 (2×) and 2.50 (2×) and 4.00 and 0.00 (3×) | Forelimb Placing Total Score ([1]; Group 3, D 60 post-MCAO, Low 4-AP 0.63 mg/kg b.i.d. p.o., 1 h after 5th dose, group Mean, N=15): 1.80 | Forelimb Placing Total Score ([1]; Group 3, D 60 post-MCAO, Low 4-AP 0.63 mg/kg b.i.d. p.o., 1 h after 5th dose, individual rats): 3.00 (4×) and 1.00 (2×) and 2.00 (2×) and 3.50 and 0.50 and 2.50 (2×) and 0.00 (3×) | Effect on global body control (body swing test) ([2]; Example 2, low (0.63 mg/kg) or high (2 mg/kg) dose b.i.d. p.o., started 4 weeks post MCAO, dose-dependent, reversible): effective to improve global body control; also recorded: significant improvement | Body swing performance ([2]; Example 17 dose escalation, groups diverged before treatment initiation): no conclusions can be drawn | Body Swing Test (% right Swing) ([2]; D 44 after MCAO): 39.56% | Body Swing Test (% right Swing) ([2]; D 46 after MCAO): 40.44% | Weight (Body weight of MCAO rats; Group 1, D 1): 291 g and 317 g (2×) and 306 g and 315 g and 323 g and 294 g | Weight (Body weight of MCAO rats; Group 1, D 7): 328 g and 361 g and 359 g and 375 g and 369 g and 340 g and 366 g | Weight (Body weight of MCAO rats; Group 1, D 14): 375 g and 403 g and 394 g and 421 g and 436 g and 382 g and 422 g | Weight (Body weight of MCAO rats; Group 1, D 21): 399 g and 419 g and 416 g and 444 g and 494 g and 428 g and 469 g | Weight (Body weight of MCAO rats; Group 1, D 28): 427 g and 451 g and 436 g and 484 g and 525 g and 457 g and 506 g | Weight (Body weight of MCAO rats; Group 1, D 30): 425 g and 450 g and 435 g and 490 g and 544 g and 470 g and 512 g | Weight (Body weight of MCAO rats; Group 1, D 32): 411 g and 441 g and 417 g and 470 g and 515 g and 454 g and 496 g | Weight (Body weight of MCAO rats; Group 1, D 42): 448 g and 491 g and 449 g and 499 g and 565 g and 479 g and 543 g | Weight (Body weight of MCAO rats; Group 1, D 44): 455 g and 501 g and 447 g and 511 g and 566 g and 480 g and 545 g and 454 g | Weight (Body weight of MCAO rats; Group 1, D 46): 448 g and 490 g and 440 g and 494 g and 570 g and 488 g and 552 g | Weight (Body weight of MCAO rats; Group 1, D 56): 476 g and 509 g and 452 g and 523 g and 612 g and 496 g and 576 g | Weight (Body weight of MCAO rats; Group 1, D 58): 480 g and 520 g and 460 g and 530 g and 625 g and 512 g and 585 g | Weight (Body weight of MCAO rats; Group 1, D 60): 475 g and 511 g and 456 g and 527 g and 615 g and 509 g and 587 g | Weight (Body weight of MCAO rats; Group 1, D −1): 305 g and 317 g and 311 g and 332 g and 340 g and 324 g and 330 g and 313 g | concentration at 90 min ([3]; 0.5 mg/kg, Example 17 dose escalation, Dose Level 0.5 mg/kg b.i.d. p.o., 90 min after 6th dose): 68.3 ng/mL | concentration at 90 min ([3]; 0.63 mg/kg, Group 1, Phase 2, Low 0.63 mg/kg b.i.d. p.o., 90 min after dosing): 64 ng/mL | concentration at 90 min ([3]; 0.63 mg/kg, Group 2, Phase 1, Low 0.63 mg/kg b.i.d. p.o., 90 min after dosing): 78.1 ng/mL | concentration at 90 min ([3]; 0.63 mg/kg, Group 3, Phase 3, Low 0.63 mg/kg b.i.d. p.o., 90 min after dosing): 61.8 ng/mL | concentration at 90 min ([3]; 1 mg/kg, Example 17 dose escalation, Dose Level 1.0 mg/kg b.i.d. p.o., 90 min after 6th dose): 114 ng/mL | concentration at 90 min ([3]; 2 mg/kg, Example 17 dose escalation, Dose Level 2.0 mg/kg b.i.d. p.o., 90 min after 6th dose): 185 ng/mL | concentration at 90 min ([3]; 2 mg/kg, Group 1, Phase 1, High 2.0 mg/kg b.i.d. p.o., 90 min after dosing): 142 ng/mL | concentration at 90 min ([3]; 2 mg/kg, Group 2, Phase 3, High 2.0 mg/kg b.i.d. p.o., 90 min after dosing): 144 ng/mL | concentration at 90 min ([3]; 2 mg/kg, Group 3, Phase 2, High 2.0 mg/kg b.i.d. p.o., 90 min after dosing): 129 ng/mL | half life ([4]; Hayes et al., J. Clin. Pharmacol. 2003): 1 to 1.5 h | 4-AP plasma concentrations obtained in clinical studies ([4]; typical, (94 ng/mL^−1)): < 1 µM
